Test results from article PMC3365592 (European Journal of Medicinal Chemistry, 2012).

Molecular target: T1, 5-HT1A receptors (Rattus norvegicus, UniProt P19327)
T1 sequence (P19327 1-422): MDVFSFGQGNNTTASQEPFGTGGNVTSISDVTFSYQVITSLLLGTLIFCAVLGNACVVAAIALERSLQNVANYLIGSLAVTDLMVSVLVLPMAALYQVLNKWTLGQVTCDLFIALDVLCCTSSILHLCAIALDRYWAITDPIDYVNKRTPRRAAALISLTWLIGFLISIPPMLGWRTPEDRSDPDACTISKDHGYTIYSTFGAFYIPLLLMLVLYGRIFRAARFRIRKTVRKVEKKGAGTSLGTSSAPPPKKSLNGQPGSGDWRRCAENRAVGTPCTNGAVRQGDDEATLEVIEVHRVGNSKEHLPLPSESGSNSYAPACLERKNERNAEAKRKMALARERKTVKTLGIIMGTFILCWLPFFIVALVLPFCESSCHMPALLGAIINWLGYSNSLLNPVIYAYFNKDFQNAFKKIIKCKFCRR
Experiment: not given
Settings: read-out: 5-HT1A Ki ± SEM; cited from earlier work

| SMILES | Ki [nM] |
| --- | --- |
| CC1CN(c2ccc3ccccc3n2)CCN1CCCCN1C(=O)CC(C)(C)CC1=O (stereo not shown) [Compound 18] | 15 ± 3 |
| O=C1c2ccccc2C(=O)N1CCCCN1CCN(c2ccc3ccccc3n2)CC1 [Compound 13] | 39 |
| CC1CN(c2ccc3ccccc3n2)CCN1CCCCN1C(=O)c2ccccc2C1=O (stereo not shown) [Compound 12] | 13 |
| CC1(C)CC(=O)N(CCCCN2CCN(c3ccc4ccccc4n3)CC2)C(=O)C1 [Compound 19] | 11 ± 2 |
| CC1CN(c2ccc3ccccc3n2)CCN1CCCN1C(=O)c2ccccc2C1=O (stereo not shown) [Compound 14] | 275 |
| CC1CN(c2ccc3ccccc3n2)CCN1CCCCN1C(=O)CC2(CCCC2)CC1=O (stereo not shown) [Compound 16] | 24 ± 3 |
| CC1CN(c2ccc3ccccc3n2)CCN1CCCCN1C(=O)CCCC1=O (stereo not shown) [Compound 15] | 37 ± 6 |

Molecular target: T1, 5-HT1A receptors
Experiment: 5-HT1A receptor binding experiments
Settings: not given

| Ki [nM] | SMILES |
| --- | --- |
| 10600 ± 3500 | O=C1CCCC(=O)N1CCCCN1CCN(c2ccc3cc([N+](=O)[O-])ccc3n2)CC1 [Compound 4, 1-{4-[4-(6-Nitro-quinolin-2-yl)-piperazin-1-yl]-butyl}-piperidine-2,6-dione] |
| 1100 ± 400 | O=C1CC2(CCCC2)CC(=O)N1CCCCN1CCN(c2ccc3cc([N+](=O)[O-])ccc3n2)CC1 [Compound 6, 8-{4-[4-(6-Nitro-quinolin-2-yl)-piperazin-1-yl]-butyl}-8-aza-spiro[4.5]decane-7,9-dione] |
| 711 ± 21 | CC1CN(c2ccc3cc([N+](=O)[O-])ccc3n2)CCN1CCCCN1C(=O)CCCC1=O (stereo not shown) [Compound 3, 1-{4-[2-Methyl-4-(6-nitroquinolin-2-yl)piperazin-1-ylo]butyl}piperidine-2,6-dione] |
| 1400 ± 100 | CC1(C)CC(=O)N(CCCCN2CCN(c3ccc4c(Cl)cccc4n3)CC2)C(=O)C1 [Compound 10, 1-{4-[4-(5-Chloroquinolin-2-yl)piperazin-1-yl]butyl}-4,4-di-methylopiperydine-2,6-dione] |
| 59000 ± 23100 | O=C1c2ccccc2C(=O)N1CCCCN1CCN(c2ccc3cc([N+](=O)[O-])ccc3n2)CC1 [Compound 9, 2-{4-[4-(6-Nitro-quinolin-2-yl)-piperazin-1-yl]-butyl}-isoindole-1,3-dione] |
| 2100 ± 400 | CC1(C)CC(=O)N(CCCCN2CCN(c3ccc4cc([N+](=O)[O-])ccc4n3)CC2)C(=O)C1 [Compound 8, 4,4-Dimethyl-1-{4-[4-(6-nitro-quinolin-2-yl)-piperazin-1-yl]-butyl}-piperidine-2,6-dione] |
